According to the METLIN SMRT retention time set (Domingo-Almenara et al. 2019):

Assay: gradient 5% acetonitrile 3 min, to 50% in 2 min, to 85% in 15 min, held 3 min, 100 µL/min
Conditions: column: Zorbax Extend-C18 2.1 x 50 mm; eluents: water / acetonitrile, 0.1% formic acid
Outline: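 Values are retention times taken from adduct peaks that software picked and an analyst inspected. The pure standards were run as mixtures of ~100 molecules on HPLC linked to a quadrupole time-of-flight mass spectrometer, in positive and negative ionization mode. A Zorbax Extend-C18 column (2.1 × 50 mm, 1.8 μm) was used at 100 μL/min with water and acetonitrile, each including 0.1% formic acid.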

| Structure (SMILES) | RP-LC retention time [s] |
| --- | --- |
| Cn1c(=O)oc2cc(-c3noc(-c4cc(F)ccc4Cl)n3)ccc21 | 1090 |
| COc1ccc(NC(=O)C2CCCN(c3nc4cccnc4s3)C2)cc1 (stereo not drawn) | 797 |
| COC(=O)c1ccc(NC(=O)c2sc(-c3cn(C(C)C)c4ncccc34)nc2C)cc1 | 1090 |
| O=C(COc1ccc(F)c(F)c1)N1CCC(Nc2cccnc2)C1 (stereo not drawn) | 604 |
| Cc1ccc(NC(=O)N(C)CC2CCOCC2)cc1C | 795 |
| CCOc1ccccc1NC(=O)C1CCN(S(=O)(=O)c2ccc3c(c2)NC(=O)C(C)O3)CC1 (stereo not drawn) | 897 |
| Cc1cn(C)nc1C(=O)N(CCN1CCOCC1)c1nc2c(C)ccc(C)c2s1 | 648 |
| CCNC(=O)C1CCCN(C(=O)Nc2ccc(NC(=O)Nc3ccc(OC)cc3)cc2)C1 (stereo not drawn) | 678 |
| COc1ccc(CNC(=O)c2ccc(CN3CCN(C(C)C)C(=O)C3=O)cc2)cc1 | 693 |
| COc1ccc(-c2c(C)noc2NC(C)=O)cc1S(=O)(=O)Nc1ccc(C)cc1C | 804 |
| Cc1ccc(-n2nc(N3CCCN(S(=O)(=O)c4ccccc4C)CC3)ccc2=O)cc1 | 910 |
| COCCCNC(=O)C1c2ccccc2C(=O)N1CCCc1ccccc1 (stereo not drawn) | 761 |
| O=C(c1ccco1)N1CCN(c2ccc(-c3nc(-c4cccc(F)c4)no3)cn2)CC1 | 893 |
| CCN1C(=O)c2cccnc2Sc2cc(CNC(=O)c3cccc(OC)c3)ccc21 | 762 |
| CCOCCCNC(=O)N1CCC(c2noc(-c3cnccn3)n2)C1 (stereo not drawn) | 614 |
| COc1ccccc1CNC(=O)C1CCN(S(C)(=O)=O)c2cc(Cl)ccc2O1 (stereo not drawn) | 910 |
| COc1ccc2nc(N3CCC(C(=O)N4CCN(c5ccccn5)CC4)CC3)sc2c1 | 578 |
| COCCn1cc2c3c(cccc31)CN(C(=O)Nc1ccc(C)cc1C)CC2 | 970 |
| Cc1ccc(Cn2c(N3CCCC(C(=O)NCCC4=CCCCC4)C3)nc3ccsc3c2=O)cc1 (stereo not drawn) | 1150 |
| O=C(Cc1ccccc1Cl)NC1CCN(c2ccc(=O)n(CC3CC3)n2)C1 (stereo not drawn) | 760 |
| CC(=O)Nc1cccc(-c2nc(-c3ccc4nnn(C(C)C)c4c3)no2)c1 | 859 |
| Cc1cc2c(cc1S(=O)(=O)N1CCCC1C(=O)NCCCc1ccccc1)OCC(=O)N2 (stereo not drawn) | 816 |
| Cc1ccoc1C(=O)N1CC(F)(F)C[C@H]1c1nc(C2CC2)no1 | 723 |
| Cc1cccc(-c2nnc(SCc3cc(=O)n4nc(C)sc4n3)o2)c1 | 782 |

| Structure (SMILES) | RP-LC retention time [s] |
| --- | --- |
| Cc1ccc(CN2CCN(C3CCN(S(=O)(=O)c4ccc(F)c(Cl)c4)CC3)C(=O)C2=O)cc1 | 926 |
| Cc1cc(C)n2nc(SCC(=O)NCCC(C)C)nc2n1 | 690 |
| CN1CCC(NC(=O)C2CCN(c3nc4ccc(-c5ccsc5)nc4s3)CC2)CC1 | 640 |
| Cc1ccc(CNc2c(-c3ccc(C)cc3)nc3ncccn23)cc1 | 812 |
| Cc1ccc(C)c(-c2csc(NC(=O)c3ccc(C)o3)n2)c1 | 1100 |
| COc1ccc(C2CC(=O)N(c3ccc(C)cc3)C(=O)C2)cc1OC | 831 |
| CC(C)CC(=O)N(CC(=O)N(Cc1ccc2c(c1)OCO2)Cc1ccco1)CC1CCCO1 (stereo not drawn) | 866 |
| O=C(Nc1nnc(-c2ccsc2)o1)c1ccno1 | 617 |
| CCN(CC)C(=O)C1CCCN(C(=O)c2nn(C)c3c2CN(C(=O)c2ccco2)CC3)C1 (stereo not drawn) | 658 |
| CSc1nc2cc(S(=O)(=O)N3CCCCC3)ccc2s1 | 1100 |
| O=C(NCc1cccc(F)c1)C1c2ccccc2CCN1C(=O)C1CC1 (stereo not drawn) | 840 |
| Cc1cc(N2CCCC2)nc(N2CCN(S(=O)(=O)c3ccc4c(c3)Cc3ccccc3-4)CC2)n1 | 924 |
| CCn1cc(-c2nc(C)c(C(=O)Nc3cc(OC)ccc3OC)s2)c2cccnc21 | 1130 |
| Cc1cccc(OCc2nc(-c3ccc4oc(C)nc4c3)no2)c1 | 1180 |
| Cc1ccc(N2CC(c3noc(-c4ccc(C)c(C)c4)n3)CC2=O)cc1 (stereo not drawn) | 1150 |
| COc1ccccc1NC(=O)NCCC1CCN(S(=O)(=O)c2ccccc2)CC1 | 910 |
| CC(C)CC(=O)N1CCC(Oc2nccnc2N(C)C)C1 (stereo not drawn) | 691 |
| CCN1C(=O)COc2cc(-c3noc(C(=O)NCC4CCCO4)n3)ccc21 (stereo not drawn) | 783 |
| CCCN1CC(Oc2ccc(-c3noc(-c4cccnc4)n3)cc2)C1 | 621 |
| COc1ccc(C2(C(=O)N3CCO[C@@H](COc4ccccn4)[C@@H]3c3ccccc3)CC2)cc1 | 1070 |
| O=C1CCC2(C(=O)N3CCN(c4ccccn4)CC3)CCC=C2N1C1CCCC1 (stereo not drawn) | 579 |
| CCc1nn2c(CNS(=O)(=O)c3cccc(Cl)c3)c(-c3ccccc3)nc2s1 | 971 |
| Cc1cc(C)c(C(=O)N2CCC(CC(=O)NCCCN3CCCCCC3)CC2)[nH]1 | 594 |

More lines, now with the values ahead:

| RP-LC retention time [s] | Structure (SMILES) |
| --- | --- |
| 884 | O=C(Nc1cccc(Cl)c1)C1CCN(S(=O)(=O)c2cc(C(=O)N3CCCC3)cs2)CC1 |
| 859 | CC(c1ccccc1)n1cnc2c(oc3ccccc32)c1=O (stereo not drawn) |
| 710 | CCOc1cccc2sc(N(CCN(C)C)C(=O)c3ccco3)nc12 |
| 703 | COc1ccc(N2CC(c3nnc(NC(=O)c4ccccc4Br)o3)CC2=O)cc1 (stereo not drawn) |
| 783 | CC1CN(C(=O)Cn2cc(SCC(=O)N3CCCCC3)c3ccccc32)CC(C)O1 (stereo not drawn) |
| 744 | CC(NC(=O)COc1ccc(NC(=O)C2CC2)cn1)c1ccccc1 (stereo not drawn) |
| 853 | CC(C)S(=O)(=O)c1cc2c(cc1NC(=O)c1ccccc1C(F)(F)F)n(C)c(=O)n2C |
| 902 | Cc1cc(C)n2c(Nc3c(C)cccc3C)c(-c3cccc(Cl)c3)nc2n1 |
| 881 | CCn1nc(CNC(=O)c2ccc(Br)o2)c2ccccc21 |
| 686 | O=C(Cn1c(=O)c2cccn2c2ccc(F)cc21)N1CCOCC1 |
| 1090 | Cc1cccc(N2CCN(C(=O)C3CCCN(c4ncnc5c4nc4n5CCCCC4)C3)CC2)c1C (stereo not drawn) |
| 854 | O=C(NC1CCCC1)N1c2ccccc2CC1c1noc(C2CCOCC2)n1 (stereo not drawn) |
| 702 | Cc1[nH]c(C)c(S(=O)(=O)N2CCC(C(=O)NC3CCCCCC3)CC2)c1C(=O)N1CCCC1 |
| 1210 | COC(=O)c1ccc2c(=O)n(-c3cc(OC)cc(OC)c3)c(N3CCC(C)CC3)nc2c1 |
| 895 | O=C(Nc1cccc(OCc2nnc(-c3ccc(F)cc3)o2)c1)C1CC(=O)N(c2ccccc2)C1 (stereo not drawn) |
| 666 | Oc1ccc(-c2nc3ncccn3c2Nc2ccc(Cl)cc2)cc1 |
| 581 | CN1CCN(CCCNC(=O)C2CCc3sc(C(=O)N4CCCCCC4)cc3C2)CC1 (stereo not drawn) |
| 699 | CC(C)CCNC(=O)C1CC(=O)N(c2n[nH]c3cccc(F)c23)C1 (stereo not drawn) |
| 705 | CNC(=O)C1CCCN(c2nc3ncn(CC(=O)Nc4cc(OC)ccc4OC)c(=O)c3s2)C1 (stereo not drawn) |
| 593 | CO[C@H]1CN(C(C)C)[C@H]1C1CCN(C(=O)C2CC=CC2)CC1 |
| 644 | CNC(=O)c1ccc(Nc2c(-c3ccccc3)nc3cnccn23)cc1 |

| RP-LC retention time [s] | Structure (SMILES) |
| --- | --- |
| 736 | Cn1ccc2c(cc(C(=O)NCCCc3ccccc3)n2C)c1=O |
| 697 | C=CCNC(=O)c1sc(Nc2cccc(C)n2)nc1C |
| 1270 | CCOc1ccc(C2Cn3nnc(-c4nc(-c5ccccc5C)no4)c3CO2)cc1 (stereo not drawn) |
| 815 | CCc1ccccc1N(C)C(=O)Cc1c(C(=O)O)c(C)cn1C |
| 801 | CCCCc1ccc(NC(=O)Cn2cnc3nc(N4CCCC(C(=O)NCC)C4)sc3c2=O)cc1 (stereo not drawn) |
| 770 | CC(C)OCCCNC(=O)c1ccc2c(c1)N(C)C(=O)C1CCCCN21 (stereo not drawn) |
| 742 | O=C(Nc1nccs1)c1cc(N2C(=O)C3C4CCC(C4)C3C2=O)ccc1Cl (stereo not drawn) |
| 875 | CN1C(=O)c2cccnc2Sc2cc(NC(=O)C3(c4ccccc4)CC3)ccc21 |
| 859 | COc1ccc(NC(=O)Cn2nc3c(Oc4cc(C)cc(C)c4)nccn3c2=O)cc1 |
| 752 | Cc1cc(C)cc(NC(=O)Cn2nc3c4cc(F)ccc4ncn3c2=O)c1 |
| 742 | Cn1nc(C(=O)N2CCC(C(=O)NC3CCCCCC3)CC2)c2c1CCN(C(=O)c1ccccc1)C2 |
| 606 | CS(=O)(=O)N1CCN(C(=O)CCC2CCN(c3cc(NC4CC4)ncn3)CC2)CC1 |
| 968 | O=C(Nc1ccc2c(c1)OCCO2)C1CCCN(S(=O)(=O)Cc2ccc(Cl)cc2)C1 (stereo not drawn) |
| 1020 | Cc1cc(C(=O)Nc2cccc(Cl)c2)nc2cc(-c3ccco3)nn12 |
| 929 | Fc1ccccc1-c1noc(NC2CCCC2)n1 |
| 1120 | Cc1cc(C(=O)NCc2ccccc2F)nc2cc(-c3cccs3)nn12 |
| 535 | CCOC(=O)c1c(CN2CCOCC2)n(C)c2cc(-c3cccnc3)c(O)cc12 |
| 821 | COc1ccc(-n2cc(-c3nc(-c4ccccn4)no3)c3ccccc3c2=O)cc1OC |
| 863 | CCc1nc(-c2nnn(-c3ccccc3)c2C)no1 |
| 678 | O=C(NCc1ccccc1F)c1nc(N2CCOCC2)c2ccccc2n1 |
